Measured values published in patent US6664283B1, “Pharmaceuticals for neurogenic pain” (Yamanouchi Pharmaceutical Co., Ltd., priority 1999, dated 2003).
Like-named read-outs stand apart in the source and are kept apart here.

Tests used:
[1] = test system: nerve ligation-induced neuropathic pain animal models; conditions: cited from earlier work; for cold hyperalgesia / development of mechanical allodynia: intrathecal twice-daily on post-operative days 0-8
mGluR1 = biological target: T1, mGluR1 (Rattus norvegicus, UniProt P23385); assay: PI hydrolysis assay in cerebellar granule cells (mGluR1 antagonistic activity); assay type: cell-based
T1 construct: endogenous in cells; host or cells: primary cerebellar granule cells from Wistar rats aged 7 to 8 days
Protocol: 1. Measurement of mGluR1 Antagonistic Activity Using Cerebellar Granule Cells The whole brain was removed from each of seven Wistar rats of 7 to 8 days of age after birth (Japan S L C), and then the cerebellum was isolated in an L-15 medium (Gibco) under a stereoscopic microscope. The isolated cerebellum was cut into pieces using a surgical knife and incubated at 37° C. for 15 minutes in 0.25% trypsin solution (Gibco) containing 750 U/ml of DNase I (Sigma). After termination of the enzyme reaction by adding fetal calf serum (JRH Biosciences), the tissue pieces were centrifuged and the supernatant was removed by sucking. After adding 10 ml of a high potassium medium, cells were dissociated by 5 to 6 times passage through a plastic pipette. After filtering the cell dispersion through a nylon mesh (40 μm pore), viable cells were counted. The cells were diluted in the high potassium medium and then seeded at a density of 8×10^5 cells/well onto 24-well culture plates (Sumitomo Bakelite) precoated with poly-L-lysine. […] High potassium medium: BME (Gibco)+10% immobilized fetal calf serum+25 mM KCl+1% penicillin/streptomycin (Gibco) The PI hydrolysis was measured as described by Aramori et al(Neuron, 8, 757-765, 1992). […] The eluate was mixed with a liquid scintillator (Aquasol-2) and the radioactivity in the eluate was determined by a liquid scintillation spectrometer.

[2] = test system: STZ-induced diabetes mice; assay: tail pinch test in STZ-induced diabetes mice model; assay type: in vivo, ICR mice; conditions: 45 minutes after administration, STZ mice day 15
Protocol: The test was carried out by modifying a previously reported method (Pharmacol. Biochem. Behav., 39, 541-544, 1991). STZ at a dose of 200 mg/kg was intraperitoneally administered to 4-weeks-old ICR mice. A pre-drug tail pinch test was carried out in the afternoon at the fourteenth day after the STZ-administration, and animals showing a reaction latency of 3 seconds or less were subjected to the next day's test. At the fifteenth day after the STZ-administration, each drug was administered orally and a post-drug tail pinch test was carried out 45 minutes after the drug administration. […] Statistical analysis was performed with Steel test between the control group and drug-administered group (* and ** in the table are as follows; *p<0.05, **p<0.01 vs. control group).

mGluR1 α = biological target: T2, mGluR1 α (Rattus norvegicus, UniProt P23385); assay: PI hydrolysis assay in mGluR1 α-expressed NIH3T3 cells; assay type: cell-based; conditions: 100 μM glutamate, read-out: IC50 value, inhibition of PI formation induced by 100 μM glutamate
T2 construct: expressed in transfected cells; host or cells: NIH3T3
Protocol: Measurement of inhibition activity by mGluR1 α expression cell The NIH3T3 cell lines expressing individually mGluR1 α and mGluR5a were cultured using DMEM containing 10% dialyzed fetal calf serum and 100 units/ml, 0.1 mg/ml of streptomycin sulfate. The CHO cell lines expressing individually mGluR2, R4, R6 and R7 were cultured using DMEM containing 10% dialyzed fetal calf serum, 100 units/ml, 0.1 mg/ml of streptomycin sulfate and 2 mM glutamine. Using the mGluR1 α-expressed cells labeled with ^3H-inositol, hydrolysis of phosphatidylinositol was measured as described previously(Nature, 383, 89-92, 1996).

mGluR7 = biological target: T3, mGluR7 (Rattus norvegicus, UniProt P35400); assay: intracellular cAMP after forskolin stimulation in mGluR7-expressing CHO cells; assay type: cell-based; conditions: up to 100 μM; cAMP formation
T3 construct: expressed in transfected cells; host or cells: CHO
Protocol: (§1) The NIH3T3 cell lines expressing individually mGluR1 α and mGluR5a were cultured using DMEM containing 10% dialyzed fetal calf serum and 100 units/ml, 0.1 mg/ml of streptomycin sulfate. The CHO cell lines expressing individually mGluR2, R4, R6 and R7 were cultured using DMEM containing 10% dialyzed fetal calf serum, 100 units/ml, 0.1 mg/ml of streptomycin sulfate and 2 mM glutamine. Using cell lines expressing individually mGluR2, R6 and R7, cAMP formation after forskolin stimulation in the presence of IBMX was measured using a cAMP assay kit as described previously (Neuron, 8, 169-179, 1992).

mGluR5a = biological target: T4, mGluR5a (Rattus norvegicus, UniProt P31424); assay: intracellular calcium concentration in mGluR5a-expressed NIH3T3 cells; assay type: cell-based; conditions: up to 10 μM
T4 construct: expressed in transfected cells; host or cells: NIH3T3
Protocol: The NIH3T3 cell lines expressing individually mGluR1 α and mGluR5a were cultured using DMEM containing 10% dialyzed fetal calf serum and 100 units/ml, 0.1 mg/ml of streptomycin sulfate. The CHO cell lines expressing individually mGluR2, R4, R6 and R7 were cultured using DMEM containing 10% dialyzed fetal calf serum, 100 units/ml, 0.1 mg/ml of streptomycin sulfate and 2 mM glutamine. Intracellular calcium concentration of the mGluR5a-expressed cells was measured using a spectrofluorometer as described previously (Nature, 383, 89-92, 1996).

[3] = test system: spinal L5/L6 nerve-ligated rats; assay: von Frey hair (VFH) test in spinal L5/L6 nerve-ligated rats; assay type: in vivo, SD rats; conditions: 30 or 100 mg/kg po; 45 minutes after administration; 7 days after operation
Protocol: The test was carried out by modifying a previously reported method (Pain, 50, 355-363, 1992). SD rats were used. The left side lumbar nerves (L5 and L6) of each animal were ligated with silk threads under pentobarbital anesthesia. The following test was carried out 7 days after the operation.
After 45 minutes of oral administration of drug, von Frey hair (VFH) test was carried out to measure a mechanical pain threshold. The measurement was carried out on both hindpaws.
Although there was little difference in the mechanical pain thresholds between the left and right hindpaw in sham-operated rats in which the threshold was 17 to 20 g (log(g): 1.23-1.30), the obvious reduction of the mechanical pain threshold in the operated side hinpaw was found in spinal L5/L6 nerve-ligated rats.
Statistical analysis was performed with Dunnet test and carried out on each side hindpaw between the control group and drug-administered groups (** and *** in the table are as follows; **p<0.01, ***p<0.001 vs. control group).

mGluR2 = biological target: T5, mGluR2 (Rattus norvegicus, UniProt P31421); assay: intracellular cAMP after forskolin stimulation in mGluR2-expressing CHO cells; assay type: cell-based; conditions: up to 100 μM; cAMP formation
T5 construct: expressed in transfected cells; host or cells: CHO
Protocol: as §1

mGluR6 = biological target: T6, mGluR6 (Rattus norvegicus, UniProt P35349); assay: intracellular cAMP after forskolin stimulation in mGluR6-expressing CHO cells; assay type: cell-based; conditions: up to 100 μM; cAMP formation
T6 construct: expressed in transfected cells; host or cells: CHO
Protocol: as §1

T1 sequence (P23385 19-1199): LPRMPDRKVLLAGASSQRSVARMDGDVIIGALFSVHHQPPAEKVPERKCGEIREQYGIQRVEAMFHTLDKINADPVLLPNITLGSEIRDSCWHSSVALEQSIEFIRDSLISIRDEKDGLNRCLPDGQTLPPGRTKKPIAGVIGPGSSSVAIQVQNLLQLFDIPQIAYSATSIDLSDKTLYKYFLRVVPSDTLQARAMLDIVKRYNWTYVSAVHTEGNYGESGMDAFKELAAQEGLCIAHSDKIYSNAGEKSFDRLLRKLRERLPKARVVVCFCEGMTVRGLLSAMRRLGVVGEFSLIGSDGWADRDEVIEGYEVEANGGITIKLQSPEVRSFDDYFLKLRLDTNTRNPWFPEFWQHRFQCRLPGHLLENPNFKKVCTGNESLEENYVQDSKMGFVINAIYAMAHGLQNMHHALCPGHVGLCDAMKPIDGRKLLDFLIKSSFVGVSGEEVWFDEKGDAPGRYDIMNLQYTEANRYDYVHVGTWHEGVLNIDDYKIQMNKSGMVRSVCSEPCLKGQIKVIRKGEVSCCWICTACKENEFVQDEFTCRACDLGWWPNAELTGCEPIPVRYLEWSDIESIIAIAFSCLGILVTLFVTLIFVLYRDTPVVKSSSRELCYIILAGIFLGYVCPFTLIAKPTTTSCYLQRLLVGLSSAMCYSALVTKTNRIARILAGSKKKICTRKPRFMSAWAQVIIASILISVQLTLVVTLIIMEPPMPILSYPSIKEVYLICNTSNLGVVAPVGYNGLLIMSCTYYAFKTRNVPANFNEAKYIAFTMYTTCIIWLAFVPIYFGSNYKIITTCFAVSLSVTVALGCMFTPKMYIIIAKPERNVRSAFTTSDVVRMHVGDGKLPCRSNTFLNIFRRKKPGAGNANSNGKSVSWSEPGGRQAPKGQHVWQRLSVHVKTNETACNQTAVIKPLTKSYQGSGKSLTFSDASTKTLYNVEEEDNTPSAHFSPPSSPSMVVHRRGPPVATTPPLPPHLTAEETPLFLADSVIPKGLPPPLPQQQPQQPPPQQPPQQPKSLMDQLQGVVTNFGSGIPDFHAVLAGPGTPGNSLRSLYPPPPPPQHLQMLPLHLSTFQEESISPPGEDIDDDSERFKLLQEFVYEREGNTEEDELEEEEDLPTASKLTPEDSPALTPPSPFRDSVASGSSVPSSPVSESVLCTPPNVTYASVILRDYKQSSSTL
T6 sequence (P35349 24-871): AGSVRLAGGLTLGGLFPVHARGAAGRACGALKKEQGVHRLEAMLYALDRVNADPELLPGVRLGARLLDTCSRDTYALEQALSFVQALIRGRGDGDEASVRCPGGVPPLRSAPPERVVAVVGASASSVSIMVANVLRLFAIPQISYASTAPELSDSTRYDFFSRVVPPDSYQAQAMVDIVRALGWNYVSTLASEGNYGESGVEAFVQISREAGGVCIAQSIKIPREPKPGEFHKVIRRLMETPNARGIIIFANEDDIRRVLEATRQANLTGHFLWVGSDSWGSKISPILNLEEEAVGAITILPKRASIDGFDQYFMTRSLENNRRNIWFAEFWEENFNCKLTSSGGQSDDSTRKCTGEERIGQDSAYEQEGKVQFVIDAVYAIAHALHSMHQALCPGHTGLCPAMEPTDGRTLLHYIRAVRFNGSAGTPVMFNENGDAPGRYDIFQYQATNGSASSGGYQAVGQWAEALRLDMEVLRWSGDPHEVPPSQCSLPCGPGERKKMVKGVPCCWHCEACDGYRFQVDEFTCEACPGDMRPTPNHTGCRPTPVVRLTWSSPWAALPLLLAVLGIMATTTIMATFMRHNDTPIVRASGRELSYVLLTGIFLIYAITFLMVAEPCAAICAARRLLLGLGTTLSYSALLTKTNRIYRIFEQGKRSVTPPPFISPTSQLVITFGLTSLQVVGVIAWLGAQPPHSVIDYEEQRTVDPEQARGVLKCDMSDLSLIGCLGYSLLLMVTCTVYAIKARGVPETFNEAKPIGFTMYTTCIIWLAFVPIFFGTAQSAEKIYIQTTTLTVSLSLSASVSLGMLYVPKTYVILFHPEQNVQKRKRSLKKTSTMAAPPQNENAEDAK
T4 sequence (P31424 21-1171 isoform P31424-2 limits assumed): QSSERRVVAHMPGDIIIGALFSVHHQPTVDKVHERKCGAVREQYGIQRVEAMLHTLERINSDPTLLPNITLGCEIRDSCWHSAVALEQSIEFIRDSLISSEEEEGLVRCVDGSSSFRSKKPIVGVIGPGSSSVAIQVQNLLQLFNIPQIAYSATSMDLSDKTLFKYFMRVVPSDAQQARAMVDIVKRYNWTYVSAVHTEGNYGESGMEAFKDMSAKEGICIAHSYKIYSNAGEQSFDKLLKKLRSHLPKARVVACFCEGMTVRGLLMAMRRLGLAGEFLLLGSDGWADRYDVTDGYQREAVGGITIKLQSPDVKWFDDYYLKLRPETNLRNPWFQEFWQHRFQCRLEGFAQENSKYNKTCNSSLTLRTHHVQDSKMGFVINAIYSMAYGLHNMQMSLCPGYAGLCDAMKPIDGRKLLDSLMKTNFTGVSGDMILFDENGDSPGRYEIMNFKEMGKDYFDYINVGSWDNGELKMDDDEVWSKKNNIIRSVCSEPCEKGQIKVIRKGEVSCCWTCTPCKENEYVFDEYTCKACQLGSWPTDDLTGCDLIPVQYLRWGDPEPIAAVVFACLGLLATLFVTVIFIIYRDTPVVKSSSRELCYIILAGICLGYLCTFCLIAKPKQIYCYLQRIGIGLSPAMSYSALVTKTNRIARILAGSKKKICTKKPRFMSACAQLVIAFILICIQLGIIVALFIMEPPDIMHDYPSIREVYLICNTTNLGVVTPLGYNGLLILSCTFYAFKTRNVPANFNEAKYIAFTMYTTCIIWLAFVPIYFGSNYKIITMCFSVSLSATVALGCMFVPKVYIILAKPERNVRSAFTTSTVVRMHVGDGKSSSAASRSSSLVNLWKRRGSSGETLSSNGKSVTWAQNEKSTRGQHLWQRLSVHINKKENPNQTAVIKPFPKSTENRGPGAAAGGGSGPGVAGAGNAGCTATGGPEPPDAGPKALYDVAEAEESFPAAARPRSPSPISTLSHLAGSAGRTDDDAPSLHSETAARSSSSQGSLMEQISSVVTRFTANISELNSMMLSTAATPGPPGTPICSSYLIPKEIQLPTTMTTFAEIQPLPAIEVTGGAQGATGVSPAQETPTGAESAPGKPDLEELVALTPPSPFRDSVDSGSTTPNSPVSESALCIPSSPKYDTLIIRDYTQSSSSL
T3 sequence (P35400 35-915): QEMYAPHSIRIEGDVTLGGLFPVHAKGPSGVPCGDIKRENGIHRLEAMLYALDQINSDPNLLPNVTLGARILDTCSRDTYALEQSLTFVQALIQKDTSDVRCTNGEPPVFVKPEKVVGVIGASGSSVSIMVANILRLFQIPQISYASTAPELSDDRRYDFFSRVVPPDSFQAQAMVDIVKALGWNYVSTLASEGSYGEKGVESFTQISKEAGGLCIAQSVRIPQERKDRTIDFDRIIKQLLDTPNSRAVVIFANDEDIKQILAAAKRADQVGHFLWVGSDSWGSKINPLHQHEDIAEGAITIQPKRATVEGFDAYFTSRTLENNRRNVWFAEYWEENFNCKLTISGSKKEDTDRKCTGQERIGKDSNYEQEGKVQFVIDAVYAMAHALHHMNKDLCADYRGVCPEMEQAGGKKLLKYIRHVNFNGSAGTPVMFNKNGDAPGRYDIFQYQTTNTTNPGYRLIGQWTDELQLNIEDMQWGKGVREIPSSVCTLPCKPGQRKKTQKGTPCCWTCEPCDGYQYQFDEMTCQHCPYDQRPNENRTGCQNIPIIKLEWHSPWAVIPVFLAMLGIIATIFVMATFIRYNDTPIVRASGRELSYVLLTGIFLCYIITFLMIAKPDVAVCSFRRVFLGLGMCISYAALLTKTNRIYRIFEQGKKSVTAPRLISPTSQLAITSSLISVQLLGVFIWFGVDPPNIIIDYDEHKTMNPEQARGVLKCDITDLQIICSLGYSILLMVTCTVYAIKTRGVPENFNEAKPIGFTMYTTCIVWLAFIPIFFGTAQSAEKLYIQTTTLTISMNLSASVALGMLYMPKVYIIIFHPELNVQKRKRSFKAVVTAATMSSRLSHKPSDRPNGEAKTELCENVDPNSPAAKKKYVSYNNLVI
T5 sequence (P31421 19-872): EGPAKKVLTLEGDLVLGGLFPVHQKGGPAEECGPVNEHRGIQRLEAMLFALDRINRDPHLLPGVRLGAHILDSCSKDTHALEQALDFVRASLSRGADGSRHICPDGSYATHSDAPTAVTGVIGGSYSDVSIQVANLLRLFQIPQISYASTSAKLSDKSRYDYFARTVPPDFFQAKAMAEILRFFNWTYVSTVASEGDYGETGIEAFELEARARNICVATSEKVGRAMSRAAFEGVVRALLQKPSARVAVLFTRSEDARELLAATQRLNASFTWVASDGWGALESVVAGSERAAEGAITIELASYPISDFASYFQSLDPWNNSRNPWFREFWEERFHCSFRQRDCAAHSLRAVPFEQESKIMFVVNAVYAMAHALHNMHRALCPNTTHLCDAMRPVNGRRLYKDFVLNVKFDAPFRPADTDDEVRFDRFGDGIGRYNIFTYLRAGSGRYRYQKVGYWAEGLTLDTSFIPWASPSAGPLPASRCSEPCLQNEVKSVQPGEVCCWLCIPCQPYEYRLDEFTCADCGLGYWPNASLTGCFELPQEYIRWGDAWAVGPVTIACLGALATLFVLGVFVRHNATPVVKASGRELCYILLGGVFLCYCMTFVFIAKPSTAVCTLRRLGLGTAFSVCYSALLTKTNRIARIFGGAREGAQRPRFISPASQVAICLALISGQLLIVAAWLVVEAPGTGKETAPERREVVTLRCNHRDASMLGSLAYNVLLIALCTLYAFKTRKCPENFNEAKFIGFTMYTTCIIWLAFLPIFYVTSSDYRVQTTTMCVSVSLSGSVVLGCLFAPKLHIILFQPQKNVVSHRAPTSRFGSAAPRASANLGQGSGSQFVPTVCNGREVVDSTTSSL
T2 sequence (P23385 19-1199): as the sequence (P23385 19-1199) above

## N[C@H](C(=O)O)c1ccc(C(=O)O)cc1 [(S)-4CPG, (S)-4-carboxyphenylglycine]
[1]; assessed on days 4 and 8
  cold hyperalgesia: attenuated cold hyperalgesia
  development of mechanical allodynia: inhibited a development of mechanical allodynia
[1]; assessed on days 12 and 16
  cold hyperalgesia: did not have an effect
  development of mechanical allodynia: did not have an effect
[1]; intrathecal twice-daily on post-operative days 8-11, any day of the test
  development of lowered pain threshold: did not inhibit development of lowered pain threshold

## C[C@H]1CCCC[C@H]1N(C)C(=O)c1cn2c(nc3ccc(N)cc32)s1.Cl.Cl [compound B, (+)-(1R,2S)-6-amino-N-methyl-N-(2-methylcyclohexyl)thiazolo [3,2-a]benzoimidazole-2-carboxamide dihydrochloride]
mGluR1
  IC50: 2 nM
[2]; 10 mg/kg po
  reaction latency in tail pinch test: significantly prolonged the latency
mGluR1 α
  IC50: 1.7 nM

## Cc1c(C(=O)N(C)C2CCCCC2)sc2nc3ccc(N)cc3n12.Cl.Cl [compound A, 6-amino-N-cyclohexyl-N, 3-dimethylthiazolo[3,2-a]benzoimidazole-2-carboxamide dihydrochloride]
mGluR1
  IC50: 22 nM
[2]; 30 mg/kg po
  reaction latency in tail pinch test: significantly prolonged the reaction latency
mGluR7
  agonist or antagonist activity for mGluR7: did not show any agonist or antagonist activity
mGluR5a
  agonist or antagonist activity for mGluR5: did not show any agonist or antagonist activity
[3]
  mechanical pain threshold in the operated side hindpaw (VFH test): improved lowered mechanical pain thresholds
mGluR2
  agonist or antagonist activity for mGluR2: did not show any agonist or antagonist activity
mGluR6
  agonist or antagonist activity for mGluR6: did not show any agonist or antagonist activity
